Reference: ChEMBL document CHEMBL1124835, “Structure-activity relationships of antineoplastic agents in multidrug resistance” (J Med Chem, 1990)
Numbered stars: 1 amine (or outer) side, 2 acyl side, 3 side chain; on linkers, the order of the positions; unused ones are H or OH. Bridge positions count the residues as written; N and C are the ends. Square brackets hold non-standard residues; d marks the D form. Peptide text beside a SMILES is read from it. I, II: the chains in the order shown. Actinocin(1to9) = Cc1c2oc3c(C)ccc(C(=O)[*:2])c3nc-2c(C(=O)[*:1])c(N)c1=O; NMeV = CN[C@H](C(=O)O)C(C)C; Sar = CNCC(=O)O

Assays:
[1] = test system: CHO
Description: Effect on cross resistance of CHO cells resistant to colchicine (CHRC5)

[2] = physchem; conditions: octanol/water, pH 7.4
[3] = test system: CHO; experiment: Effect on cross resistance of chinese hamster ovary CHO cells resistant to colchicine (CHRC5); type: functional, Cricetulus griseus
[4] = test system: CHRC5 cell line; type: functional, Cricetulus griseus
Description: Effect on collateral sensitivity of CHRC5 cells to local anesthetics/steroids.

[5] = octanol/water, pH 7.4
[6] = test system: L1210
Description: Cross resistance profile versus L1210/R71 cells.

[7] = test system: CCRF-CEM; experiment: Effect on cross resistance of CCRF-CEM cells resistant to vincristine.; type: functional, Homo sapiens
[8] = test system: CHO; experiment: Cross resistance of chinese hamster cells resistant to actinomycin D as log of ratio of molar concentration of compound inducing 50% inhibition of growth in resistant and sensitive cells; type: functional, Cricetulus griseus
[9] = test system: L1210; experiment: Cross resistance to the compound expressed as log of ratio of molar concentration of drug inducing 50% inhibition of growth in murine leukemia L1210/R71 and L1210/0 cells; type: functional, Mus musculus
[10] = test system: CHRC5 cell line
Description: Collateral sensitivity of CHRC5 cells to local anesthetics/steroids as log of ratio of molar concentration of drug inducing 50% growth inhibition in CHO AUXB1 cells to that of CHRC5 cells

| Compound | logD [2] | Log CR [6] | further results |
| --- | --- | --- | --- |
| N[C@@H](Cc1ccc(N(CCCl)CCCl)cc1)C(=O)O | -0.52 | – | Log CR [1]: 1.18 |
| C[n+]1c2cc(N)ccc2cc2ccc(N)cc21.[Cl-] [EUFLAVINE] | 1.6 | – | Log CR [3]: 0.84 |
| O=c1[nH]c(=O)n([C@H]2C[C@H](O)[C@@H](CO)O2)cc1Br [BROXURIDINE] | -0.29 | – | – |
| CC(=O)[C@H]1CC[C@H]2[C@@H]3CCC4CC(=O)CC[C@]4(C)[C@H]3CC[C@]12C (stereo partly specified) | 3.99 | – | Log sensitivity [4]: 1 |
| BLEOMYCIN | – | – | logD [5]: -2.38 |
| Nc1ncn([C@@H]2O[C@H](CO)[C@@H](O)[C@H]2O)c(=O)n1 [AZACITIDINE] | -2.17 | 1.54 | – |
| CC[C@]1(O)C[C@@H]2CN(CCc3c([nH]c4ccccc34)[C@@](C(=O)OC)(c3cc4c(cc3OC)N(C)[C@H]3[C@@](O)(C(N)=O)[C@H](O)[C@]5(CC)C=CCN6CC[C@]43[C@@H]65)C2)C1 [VINDESINE] | 0.67 | – | Log CR [7]: 3 |
| COc1cc2cc(c1Cl)N(C)C(=O)C[C@H](OC(=O)[C@H](C)N(C)C(C)=O)[C@]1(C)O[C@H]1[C@H](C)[C@@H]1C[C@@](O)(NC(=O)O1)[C@H](OC)/C=C/C=C(\C)C2 [MAYTANSINE] | – | 1.23 | Log CR [7]: 2.85 |
| CC(C)[C@@H]1NC(=O)[C@H](C)OC(=O)[C@@H](C(C)C)NC(=O)[C@@H](C(C)C)OC(=O)[C@H](C(C)C)NC(=O)[C@H](C)OC(=O)[C@@H](C(C)C)NC(=O)[C@@H](C(C)C)OC(=O)[C@H](C(C)C)NC(=O)[C@H](C)OC(=O)[C@@H](C(C)C)NC(=O)[C@@H](C(C)C)OC1=O [VALINOMYCIN] | 3.24 | 0.59 | – |
| CC[C@]1(O)C[C@H]2CN(CCc3c([nH]c4ccccc34)[C@@](C(=O)OC)(c3cc4c(cc3OC)N(C=O)[C@H]3[C@@](O)(C(=O)OC)[C@H](OC(C)=O)[C@]5(CC)C=CCN6CC[C@]43[C@@H]65)C2)C1 [VINCRISTINE] | 2.57 | – | Log CR [7]: 2.76 |
| CO[C@H](C(=O)[C@@H](O)[C@@H](C)O)[C@@H]1Cc2cc3cc(O[C@H]4C[C@@H](O[C@H]5C[C@@H](O)[C@H](O)[C@@H](C)O5)[C@H](O)[C@@H](C)O4)c(C)c(O)c3c(O)c2C(=O)[C@H]1O[C@H]1C[C@@H](O[C@H]2C[C@@H](O[C@H]3C[C@](C)(O)[C@H](O)[C@@H](C)O3)[C@@H](O)[C@@H](C)O2)[C@H](O)[C@@H](C)O1 [PLICAMYCIN] | -0.25 | – | – |
| CC[C@H]1CN2CCc3cc(OC)c(OC)cc3[C@@H]2C[C@@H]1C[C@H]1NCCc2cc(OC)c(OC)cc21 [EMETINE] | 3.24 | – | Log CR [3]: 1.46 |
| O=P1(N(CCCl)CCCl)NCCCO1 (stereo unspecified) [CYCLOPHOSPHAMIDE ANHYDROUS] | 0.63 | – | Log sensitivity [4]: 0.52 |
| O=[N+]([O-])c1cccc2ccc[n+]([O-])c12 | 1.02 | – | – |
| Sc1ncnc2nc[nH]c12 [MERCAPTOPURINE ANHYDROUS] | 0.01 | – | Log CR [8]: -0.3; Log CR [9]: 0.6 |
| COc1cccc2c1C(=O)c1c(O)c3c(c(O)c1C2=O)C[C@@](O)(C(C)=O)C[C@@H]3O[C@H]1C[C@H](N)[C@H](O)[C@H](C)O1 [DAUNORUBICIN] | – | – | Log CR [7]: 1.2 |
| CC/C(=C(\c1ccccc1)c1ccc(OCCN(C)C)cc1)c1ccccc1 [TAMOXIFEN] | – | 0.59 | – |
| CN[C@H]1CCc2cc(OC)c(OC)c(OC)c2-c2ccc(OC)c(=O)cc21 [DEMECOLCINE] | 1.37 | – | Log CR [1]: 1.2 |
| CCN(CC)CCOC(=O)c1ccc(N)cc1 [PROCAINE] | 0.3 | – | Log sensitivity [10]: 0.4 |
| Nc1n[nH]c(N)n1 [GUANAZOLE] | -1.61 | 0.08 | – |
| COc1ccc(OC)c(Cc2cnc3nc(N)nc(N)c3c2C)c1 [PIRITREXIM] | 1.77 | – | Log CR [9]: 1.89 |
| S=P(N1CC1)(N1CC1)N1CC1 [THIOTEPA] | 0.53 | – | Log CR [1]: 0 |
| COc1cc2c(c(OC)c1OC)-c1ccc(OC)c(=O)cc1[C@@H](NC(C)=O)CC2 [COLCHICINE] | 1.03 | – | Log CR [1]: 2.26; Log CR [7]: 1.08 |
| CC(C)NCC(O)COc1cccc2ccccc12 (stereo unspecified) [PROPRANOLOL] | – | – | Log sensitivity [10]: 0.7 |

| Compound | logD [2] | Log CR [6] | further results |
| --- | --- | --- | --- |
| CC1(C)N=C(N)N=C(N)N1c1cccc(Br)c1 | -2.14 | 2.06 | – |
| CCCCCCCCCCCCc1cccc(N2C(N)=NC(N)=NC2(C)C)c1 | 3.41 | 0.52 | – |
| CO[C@H](C(=O)[C@@H](O)[C@@H](C)O)[C@@H]1Cc2cc3cc(O[C@H]4C[C@@H](O[C@@H]5C[C@@H](O)[C@H](O)[C@@H](C)O5)[C@H](O)[C@@H](C)O4)c(C)c(O)c3c(O)c2C(=O)[C@H]1O[C@H]1C[C@@H](O[C@@H]2C[C@@H](O)[C@@H](O[C@@H]3C[C@](C)(O)[C@H](O)[C@@H](C)O3)[C@@H](C)O2)[C@H](O)[C@@H](C)O1 [PLICAMYCIN] | – | 0.66 | – |
| CC[n+]1c(-c2ccccc2)c2cc(N)ccc2c2ccc(N)cc21.[Br-] [HOMIDIUM BROMIDE] | 1.15 | – | Log CR [1]: 1.04 |
| CC1(C)N=C(N)N=C(N)N1c1cccc(O)c1 | -3.67 | 1.86 | – |
| Cc1c2oc3c(C)ccc(C(=O)N[C@@H]4C(=O)N[C@H](C(C)C)C(=O)N5CCC[C@H]5C(=O)N(C)CC(=O)N(C)[C@@H](C(C)C)C(=O)O[C@@H]4C)c3nc-2c(C(=O)N[C@@H]2C(=O)N[C@H](C(C)C)C(=O)N3CCC[C@H]3C(=O)N(C)CC(=O)N(C)[C@@H](C(C)C)C(=O)O[C@@H]2C)c(N)c1=O [DACTINOMYCIN] (I: T[dV]P[Sar][NMeV] / II: T[dV]P[Sar][NMeV]; ester I:1-I:C, II:1-II:C; linker I:N-II:N via Actinocin(1to9)) | 3.21 | 0.12 | – |
| Cc1nc(N)nc(N)c1-c1ccc(Cl)c(Cl)c1 [METOPRINE] | 2.56 | – | Log CR [9]: 1.7 |
| O=c1[nH]cc(F)c(=O)[nH]1 [FLUOROURACIL] | -0.89 | -0.04 | Log CR [1]: 0 |
| C[C@]12CC[C@H]3[C@@H](CCC4=CC(=O)CC[C@@]43C)[C@@H]1CC[C@@H]2C(=O)CO [DESOXYCORTICOSTERONE] | 3.08 | – | Log sensitivity [4]: 1 |
| C=C1[C@@H](C)[C@H]2[C@H](Cc3ccccc3)NC(=O)[C@]23OC(=O)/C=C/[C@H](O)CCC[C@@H](C)C/C=C/[C@H]3[C@@H]1O [CYTOCHALASIN B] | 3.37 | – | Log CR [1]: 1.04 |
| COc1ccc(C[C@H](N)C(=O)N[C@H]2[C@@H](O)[C@H](n3cnc4c(N(C)C)ncnc43)O[C@@H]2CO)cc1 [PUROMYCIN] | 0.86 | 1.82 | Log CR [1]: 2.02 |
| CC[C@]1(O)C[C@@H]2CN(CCc3c([nH]c4ccccc34)[C@@](C(=O)OC)(c3cc4c(cc3OC)N(C)[C@H]3[C@@](O)(C(=O)OC)[C@H](OC(C)=O)[C@]5(CC)C=CCN6CC[C@]43[C@@H]65)C2)C1 [VINBLASTINE] | – | – | Log CR [7]: 1.28 |
| CC(=O)c1cccc(N2C(N)=NC(N)=NC2(C)C)c1 | -3.55 | 2.2 | – |
| O=C(O)CCCc1ccc(N(CCCl)CCCl)cc1 [CHLORAMBUCIL] | 1.47 | – | Log CR [1]: 0.3 |
| CC[C@H]1OC(=O)[C@H](C)[C@@H](O[C@H]2C[C@@](C)(OC)[C@@H](O)[C@H](C)O2)[C@H](C)[C@@H](O[C@@H]2O[C@H](C)C[C@H](N(C)C)[C@H]2O)[C@](C)(O)C[C@@H](C)C(=O)[C@H](C)[C@@H](O)[C@]1(C)O [ERYTHROMYCIN] | 1.26 | – | Log CR [1]: 0.7 |
| NC(=O)NO [HYDROXYUREA] | -1.27 | 0.3 | – |
| COc1cccc2c1C(=O)c1c(O)c3c(c(O)c1C2=O)C[C@@](O)(C(=O)CO)C[C@@H]3O[C@H]1C[C@H](N)[C@H](O)[C@H](C)O1 [DOXORUBICIN] | 0.1 | – | Log CR [1]: 1.4; Log CR [7]: 1.46 |
| Nc1ccc2cc3ccc(N)cc3nc2c1 [PROFLAVINE] | 1.1 | – | Log CR [8]: 0.46; Log CR [3]: 0.6 |
| CCCC[N+](CCCC)(CCCC)CCCC.[Br-] [TETRABUTYLAMMONIUM BROMIDE] | -3 | – | Log sensitivity [4]: -0.84 |
| CC1(C)N=C(N)N=C(N)N1c1ccccc1 | -3 | 2.18 | – |
| COc1cc(NCc2ccc3nc(N)nc(N)c3c2C)cc(OC)c1OC [TRIMETREXATE] | 0.84 | – | Log CR [9]: 1.75 |
| CC1(C)N=C(N)N=C(N)N1c1cccc(COc2cccc(-c3ccccc3)c2)c1 | 0.69 | 1.22 | – |
| C[N+]1(C)CCC(OC(=O)C(c2ccccc2)c2ccccc2)CC1.[I-] [4-DAMP] | 2.64 | 1.63 | – |
